From US11192899B2 (MERCK PATENT GMBH, priority 2017, dated 2021)

Legend:
[1] = tested on: mouse Pan T cells; assay: rescue of cytokine (IL-2, IFN-γ) secretion of CD3/CD28-activated mouse Pan T cells inhibited by CGS-21680; format: cell-based; details: CGS-21680 1 μM, BALB/c Pan T cells
Source text: Adenosine (Ado) in tumor microenvironment can inhibit T cell activity by signaling through A2A receptors and suppress cytokine secretion by T cells. […] Potential A2A antagonists or A2A/A2B dual antagonists can rescue T cells from this inhibition. Herein, we describe the in vitro system we established using Pan T cells from mouse spleens to screen potential A2A antagonists or A2A/A2B dual antagonists for their activity. The method described involves the use of CD3/CD28 pre-coated beads to stimulate Pan T cells purified from mouse splenocytes, combined with the addition of A2A agonist along with potential A2A or A2A/A2B dual antagonists to evaluate potentiation of T cell cytokine production.
Briefly, mouse Pan T cells are purified from spleens of BALB/c mice using Pan T cell isolation kit Mouse II (MACS Miltenyi biotech Cat #Order no. 130-095-130) according to manufacturer's protocol. The purified T cells are seeded in Nunc™ 96-Well Polystyrene Round Bottom Microwell Plates in RPMI medium with 10% heat inactivated fetal bovine serum. The cells are rested at 37° C. for 1 h before activating with CD3/CD28 pre-coated beads (Dynabeads™ Mouse T-Activator CD3/CD28; Cat #11456D). After 30 min the cells are treated with varying doses of test antagonist(s). […] After 24 h incubation IL-2 levels in the supernatants and after 48 h incubation IFN-γ levels in the supernatants are measured by ELISAs according to manufacturer's protocol (R&D systems Cat #DY402 (IL-2); DY485 (IFN-γ)). Once the concentrations are calculated, the difference of cytokine concentration of DMSO control and agonist alone control is calculated (called Δ) and the percentage of rescue by each concentration of antagonist is calculated by using Microsoft Excel. These percentages of cytokine rescue in a dose dependent manner of antagonist is plotted in GraphPad Prism software and IC50 is calculated.

[2] = pharmacokinetics in mouse after single intravenous and oral administration; details: for Feces iv [%]: iv @ 0.2, excretion as % of dose; for half-life / Vd / clearance: 0.2 mg/kg
Source text: Female Wistar rats/mice (n=6) received either a single intravenous (bolus) injection or an oral administration (by gavage) of the tested compound.
The concentrations of the compounds in plasma, feces were quantified using an UPLC method with tandem mass spectrometric detection (LC-MS/MS) previously developed at the ‘Institute of Drug Metabolism and Pharmacokinetics’. The LCMS/MS system consisted of a Waters Acquity UPLC coupled to an AB Sciex mass spectrometer API 5500 Q-trap. […] The detection of the compounds was performed using multiple reaction monitoring in the positive ionization mode. Plasma samples were spiked with internal standard (20 μl) and the analyte was extracted from the matrix using tertiary-butyl methyl ether (tBME). The organic phase was evaporated to dryness under a stream of nitrogen. The residue was dissolved in acetonitrile/0.1% formic acid for LC-MS/MS analysis. Feces samples were homogenized with 4-times their volume of an ethanol/water mixture (4:1, v/v). Aliquots of the aqueous-ethanolic extracts were spiked with internal standard, diluted with acetonitrile/water (1:1, v/v) and directly injected into the LC-MS/MS system.
Pharmacokinetic parameters Cmax and tmax were taken from the observed data. […] AUC values were calculated by non-compartmental analysis using the linear up/log down method. Numerical data for mean plasma concentrations and derived pharmacokinetic parameters were rounded to 3 significant digits for presentation.

[3] = molecular target: T1, human A2A receptor (Homo sapiens, UniProt P29274); assay: cAMP HTRF functional assay, recombinant HEK293 cells expressing human A2A receptor, agonist NECA; format: cell-based
T1 construct: expressed in transfected cells; host or cells: HEK293
T1 sequence (P29274 whole entry): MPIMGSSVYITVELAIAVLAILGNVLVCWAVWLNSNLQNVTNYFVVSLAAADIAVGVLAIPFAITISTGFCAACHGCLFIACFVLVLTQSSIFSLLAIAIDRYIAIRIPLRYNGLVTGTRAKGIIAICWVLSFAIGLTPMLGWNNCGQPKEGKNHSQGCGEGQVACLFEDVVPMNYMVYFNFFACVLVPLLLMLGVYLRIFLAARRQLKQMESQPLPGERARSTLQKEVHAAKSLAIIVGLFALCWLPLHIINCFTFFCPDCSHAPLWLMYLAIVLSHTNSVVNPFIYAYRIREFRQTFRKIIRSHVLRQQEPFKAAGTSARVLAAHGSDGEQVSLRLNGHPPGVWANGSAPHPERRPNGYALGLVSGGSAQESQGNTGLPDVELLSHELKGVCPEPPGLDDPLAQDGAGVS
Method: (§1) The functional activities of human A2A, A2B, A1 and A3 receptors were determined by quantification of cAMP, being the second messenger for adenosine receptors.
(§2) Obtained raw data were normalized against the inhibitor control and the neural control (DMSO) and the normalized data were fitted using GeneData software.

[4] = molecular target: T2, human A1 receptor (Homo sapiens, UniProt P30542); assay: cAMP HTRF functional assay, recombinant CHO cells expressing human A1 receptor, forskolin and agonist CPA; format: cell-based
T2 construct: expressed in transfected cells; host or cells: CHO
T2 sequence (P30542 1-326): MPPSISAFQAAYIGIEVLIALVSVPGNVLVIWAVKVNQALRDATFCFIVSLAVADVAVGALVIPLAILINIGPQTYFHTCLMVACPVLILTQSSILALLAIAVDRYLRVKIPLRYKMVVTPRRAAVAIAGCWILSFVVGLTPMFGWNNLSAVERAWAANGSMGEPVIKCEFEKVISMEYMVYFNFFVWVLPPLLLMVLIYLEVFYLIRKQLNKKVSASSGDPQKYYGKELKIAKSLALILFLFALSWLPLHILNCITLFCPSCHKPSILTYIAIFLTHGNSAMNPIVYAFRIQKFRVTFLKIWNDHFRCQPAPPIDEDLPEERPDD
Method: as §1
(§3) For human A1 and A3 receptors, recombinant CHO cells, expressing either A1 or A3-receptor, were used. As both receptors couple to Gi proteins, the assay protocol was adapted:
(§4) Cells were seeded into 384-well plates, forskolin, test compounds and agonists (CPA for A1- and IB-MECA for A3-receptor) were added. After 30 min incubation, HTRF reagents (cAMP dynamic 2, Cis Bio) were added and the cellular cAMP levels were determined using the ENVISION (Perkin Elmer) plate reader.
as §2

[5] = molecular target: T3, A2B receptors (Homo sapiens, UniProt P29275); assay: cAMP HTRF functional assay, recombinant HEK293 cells expressing human A2B receptor, agonist NECA; format: cell-based; set-up: expressed in transfected cells; host or cells: HEK293
T3 sequence (P29275 1-332): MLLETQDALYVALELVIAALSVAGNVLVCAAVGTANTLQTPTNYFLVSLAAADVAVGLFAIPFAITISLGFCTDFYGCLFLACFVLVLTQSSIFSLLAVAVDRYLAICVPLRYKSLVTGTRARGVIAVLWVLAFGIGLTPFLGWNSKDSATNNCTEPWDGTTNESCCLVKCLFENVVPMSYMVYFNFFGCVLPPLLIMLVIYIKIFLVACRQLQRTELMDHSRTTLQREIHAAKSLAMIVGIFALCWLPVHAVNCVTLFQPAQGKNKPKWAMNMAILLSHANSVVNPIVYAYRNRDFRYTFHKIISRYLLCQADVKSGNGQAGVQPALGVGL
Method: as §1, §2

[6] = molecular target: T4, human A3 receptor (Homo sapiens, UniProt P0DMS8); assay: cAMP HTRF functional assay, recombinant CHO cells expressing human A3 receptor, forskolin and agonist IB-MECA; format: cell-based
T4 construct: expressed in transfected cells; host or cells: CHO
T4 sequence (P0DMS8 1-318): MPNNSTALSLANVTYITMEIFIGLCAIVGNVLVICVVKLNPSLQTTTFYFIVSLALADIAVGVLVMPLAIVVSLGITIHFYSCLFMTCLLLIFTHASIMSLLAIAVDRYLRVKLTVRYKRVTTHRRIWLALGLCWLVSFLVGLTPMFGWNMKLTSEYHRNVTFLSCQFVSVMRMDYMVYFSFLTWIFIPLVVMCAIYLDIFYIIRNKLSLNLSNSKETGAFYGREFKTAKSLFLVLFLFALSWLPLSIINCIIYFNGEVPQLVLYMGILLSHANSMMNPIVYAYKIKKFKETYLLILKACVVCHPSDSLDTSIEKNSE
Method: as §1, §3, §4, §2

SMILES	IC50 [3]	IC50 [4]	IC50 [5]	IC50 [6]	other results
COc1ccc(N2CCOCC2)c2sc(NC(=O)N3CCC(C)(O)CC3)nc12 [Tozadenant, reference compound]					Mouse IFN-γ [nM] ([1]; IFN-γ rescue, 48 h): NA (< 50% rescue); Mouse T-Cell IL-2 [nM] ([1]; IL-2 rescue, 24 h): NA (< 50% rescue); CL ([2]; PK data in mouse, iv): 1478 mL/min/kg; Vss [L/kg] ([2]; PK data in mouse, iv): 2,03 L/kg; t1/2 [h] ([2]; PK data in mouse, iv): 0,184 h; Feces iv [%] ([2]; PK data in mouse): 23 @ 0.2%; CMax (iv) @ 1 mg/kg ([2]; PK data in mouse, iv): 337 ng/mL
COc1ccc(C2CCOCC2)c2ncc(NC(=O)N3CCC(C)(O)CC3)nc12 [compound 5]	< 100 nM	> 1000 nM	> 1000 nM	> 1000 nM	Feces iv [%] ([2]; PK data in mouse): 4.2 @ 0.2%; CMax (iv) @ 1 mg/kg ([2]; PK data in mouse, iv): 908 ng/mL; half-life ([2]; female, mouse, in vivo, iv): 55.2 min; Vd ([2]; female, mouse, plasma, iv): 1.24 L/kg; clearance ([2]; female, mouse, plasma, iv): 19.7 mL/min/kg
C#CCC1(O)CCN(C(=O)Nc2cnc3c(C4CCOCC4)ccc(OC)c3n2)CC1 [compound 10]	< 100 nM	< 1000 nM	> 1000 nM	> 1000 nM	Feces iv [%] ([2]; PK data in mouse): 1.8 @ 0.2%; Vd ([2]; female, mouse, plasma, iv): 0.811 L/kg; clearance ([2]; female, mouse, plasma, iv): 18.2 mL/min/kg; half-life ([2]; female, mouse, plasma, iv): 33 min; Cmax ([2]; female, mouse, plasma, iv, 1 mg/kg): 1090 ng/mL
COCCOCc1cccc(-c2ccc(OC)c3nc(NC(=O)N4CCC(C)(O)CC4)cnc23)c1 [compound 118, 4-hydroxy-N-(8-methoxy-5-{3-[(2-methoxyethoxy)methyl]phenyl}quinoxalin-2-yl)-4-methylpiperidine-1-carboxamide]	< 100 nM	> 1000 nM	> 1000 nM	> 1000 nM	
COc1ccc(-c2cccnc2)c2ncc(NC(=O)C3CC3)nc12 [compound 121, N-[8-methoxy-5-(pyridin-3-yl)quinoxalin-2-yl]cyclopropanecarboxamide]	< 100 nM	< 1000 nM	< 1000 nM	< 1000 nM	
COc1ccc(-c2cccnc2)c2ncc(NC(=O)c3cnc(C)o3)nc12 [compound 138, N-[8-methoxy-5-(pyridin-3-yl)quinoxalin-2-yl]-2-methyl-1,3-oxazole-5-carboxamide]	< 100 nM	< 10 nM	< 100 nM	> 1000 nM	
COc1ccc(C2=CCOC2)c2ncc(NC(=O)C3CC3)nc12 [compound 141, N-[5-(2,5-dihydrofuran-3-yl)-8-methoxyquinoxalin-2-yl]cyclopropanecarboxamide]	< 100 nM	< 1000 nM	< 100 nM	< 1000 nM	
COCCOc1cccc(-c2ccc(OC)c3nc(NC(=O)c4cnc(C)o4)cnc23)c1 [compound 148, N-{8-methoxy-5-[3-(2-methoxyethoxy)phenyl]quinoxalin-2-yl}-2-methyl-1,3-oxazole-5-carboxamide]	< 10 nM	< 1000 nM	< 100 nM	> 1000 nM	
COCCOc1cccc(-c2ccc(OC)c3nc(NC(=O)c4cnc(C)s4)cnc23)c1 [compound 151, N-{8-methoxy-5-[3-(2-methoxyethoxy)phenyl]quinoxalin-2-yl}-2-methyl-1,3-thiazole-5-carboxamide]	< 100 nM	< 1000 nM	> 1000 nM	> 1000 nM	
COc1ncc(-c2ccc(OC)c3nc(NC(=O)C4CC4)cnc23)cn1 [compound 156, N-[8-methoxy-5-(2-methoxypyrimidin-5-yl)quinoxalin-2-yl]cyclopropanecarboxamide]	< 100 nM	< 1000 nM	> 1000 nM	> 1000 nM	

The next lines start with results.

IC50 [3]	IC50 [4]	IC50 [5]	IC50 [6]	SMILES	other results
< 10 nM	< 1000 nM	< 100 nM	< 1000 nM	COc1ccc(-c2ccccc2F)c2ncc(NC(=O)C3CC3)nc12 [compound 120, N-[5-(2-fluorophenyl)-8-methoxyquinoxalin-2-yl]cyclopropanecarboxamide]	
< 10 nM	< 1000 nM	< 100 nM	< 1000 nM	COc1ccc(-c2cccc(F)c2F)c2ncc(NC(=O)C3CC3)nc12 [compound 123, N-[5-(2,3-difluorophenyl)-8-methoxyquinoxalin-2-yl]cyclopropanecarboxamide]	
< 10 nM	< 1000 nM	> 1000 nM	< 1000 nM	COc1ccc(-c2cc(F)ccc2F)c2ncc(NC(=O)C3CC3)nc12 [compound 124, N-[5-(2,5-difluorophenyl)-8-methoxyquinoxalin-2-yl]cyclopropanecarboxamide]	
< 10 nM	< 1000 nM	< 100 nM	< 1000 nM	COc1ccc(-c2ccc(F)cc2)c2ncc(NC(=O)C3CC3)nc12 [compound 126, N-[5-(4-fluorophenyl)-8-methoxyquinoxalin-2-yl]cyclopropanecarboxamide]	
< 10 nM	< 1000 nM	< 100 nM	< 1000 nM	COc1ccc(-c2ccc(F)cc2)c2ncc(NC(=O)c3cnc(C)o3)nc12 [compound 131, N-[5-(4-fluorophenyl)-8-methoxyquinoxalin-2-yl]-2-methyl-1,3-oxazole-5-carboxamide]	
< 10 nM	< 1000 nM	< 100 nM	> 1000 nM	COc1ccc(C2=CCOCC2)c2ncc(NC(=O)c3cnc(C)s3)nc12 [compound 134, N-[5-(3,6-dihydro-2H-pyran-4-yl)-8-methoxyquinoxalin-2-yl]-2-methyl-1,3-thiazole-5-carboxamide]	
< 10 nM	< 1000 nM	< 100 nM	> 1000 nM	COc1ccc(C2=CCOCC2)c2ncc(NC(=O)c3cnsc3)nc12 [compound 136, N-[5-(3,6-dihydro-2H-pyran-4-yl)-8-methoxyquinoxalin-2-yl]-1,2-thiazole-4-carboxamide]	
< 10 nM	< 1000 nM	< 100 nM	< 1000 nM	COCCOc1cccc(-c2ccc(OC)c3nc(NC(=O)C4CC4)cnc23)c1 [compound 147, N-{8-methoxy-5-[3-(2-methoxyethoxy)phenyl]quinoxalin-2-yl}cyclopropanecarboxamide]	
